Where a name gives a salt, the structure may show the parent alone. Read-outs that look alike come from different tables or passages of the source.
How the values were obtained:
CDK2/E = CDK2/E (Homo sapiens (Human), UniProt P24941); experiment: ADP-Glo Kinase Assay, CDK2/E; assay type: biochemical; conditions: 1 μM compound; for inhibition at 1 µM: read-out: CDK2/E % INH (1 μM)
Summary of the method: (§1)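 Compounds were diluted in assay buffer to 1000 nM and incubated with kinase, substrate and ATP at apparent Km. Remaining ATP was depleted, ADP converted to ATP and detected by luciferase; percent inhibition came from normalized luminescence.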

DYRK1 = DYRK1 (Homo sapiens (Human), UniProt Q13627); experiment: ADP-Glo Kinase Assay, DYRK1; assay type: biochemical; conditions: 1 μM compound; for inhibition at 1 µM: read-out: DYRK1A % INH (1 μM)
Summary of the method: as §1

CYP3A4 = CYP3A4 (Homo sapiens (Human), UniProt P08684); experiment: Cytochrome P450 inhibition, fluorescence, CYP3A4; assay type: in vitro ADME; conditions: recombinant CYP3A4, fluorescence detection; read-out: CYP inhibition (CYP 3A4 screening, IC50 class)
Summary of the method: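 Recombinant human CYP3A4 was incubated at 37 °C for 30–45 min with a fluorogenic probe substrate near apparent Km and serially diluted compound, after ≥10 min preincubation with an NADPH-regenerating system. Fluorescence was read after stopping, with compound autofluorescence measured beforehand and no-inhibitor and pre-stopped blanks as controls.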

hERG potassium channel = hERG potassium channel (Homo sapiens (Human), UniProt Q12809); experiment: hERG automated patch clamp assay (QPatch HT)
Summary of the method: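 Automated whole-cell patch clamp of hERG current in mammalian cells at room temperature. Compounds applied at 0.1, 1, 3, 10 and 30 μM, 3 min per concentration, n≥2 cells each.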

HepG2 cells = experiment: Growth inhibition, MTS assay, HepG2; assay type: cell-based, Human; conditions: MTS cell viability, read-out: HepG2 ED50

Sequence of hERG potassium channel (Q12809 whole entry): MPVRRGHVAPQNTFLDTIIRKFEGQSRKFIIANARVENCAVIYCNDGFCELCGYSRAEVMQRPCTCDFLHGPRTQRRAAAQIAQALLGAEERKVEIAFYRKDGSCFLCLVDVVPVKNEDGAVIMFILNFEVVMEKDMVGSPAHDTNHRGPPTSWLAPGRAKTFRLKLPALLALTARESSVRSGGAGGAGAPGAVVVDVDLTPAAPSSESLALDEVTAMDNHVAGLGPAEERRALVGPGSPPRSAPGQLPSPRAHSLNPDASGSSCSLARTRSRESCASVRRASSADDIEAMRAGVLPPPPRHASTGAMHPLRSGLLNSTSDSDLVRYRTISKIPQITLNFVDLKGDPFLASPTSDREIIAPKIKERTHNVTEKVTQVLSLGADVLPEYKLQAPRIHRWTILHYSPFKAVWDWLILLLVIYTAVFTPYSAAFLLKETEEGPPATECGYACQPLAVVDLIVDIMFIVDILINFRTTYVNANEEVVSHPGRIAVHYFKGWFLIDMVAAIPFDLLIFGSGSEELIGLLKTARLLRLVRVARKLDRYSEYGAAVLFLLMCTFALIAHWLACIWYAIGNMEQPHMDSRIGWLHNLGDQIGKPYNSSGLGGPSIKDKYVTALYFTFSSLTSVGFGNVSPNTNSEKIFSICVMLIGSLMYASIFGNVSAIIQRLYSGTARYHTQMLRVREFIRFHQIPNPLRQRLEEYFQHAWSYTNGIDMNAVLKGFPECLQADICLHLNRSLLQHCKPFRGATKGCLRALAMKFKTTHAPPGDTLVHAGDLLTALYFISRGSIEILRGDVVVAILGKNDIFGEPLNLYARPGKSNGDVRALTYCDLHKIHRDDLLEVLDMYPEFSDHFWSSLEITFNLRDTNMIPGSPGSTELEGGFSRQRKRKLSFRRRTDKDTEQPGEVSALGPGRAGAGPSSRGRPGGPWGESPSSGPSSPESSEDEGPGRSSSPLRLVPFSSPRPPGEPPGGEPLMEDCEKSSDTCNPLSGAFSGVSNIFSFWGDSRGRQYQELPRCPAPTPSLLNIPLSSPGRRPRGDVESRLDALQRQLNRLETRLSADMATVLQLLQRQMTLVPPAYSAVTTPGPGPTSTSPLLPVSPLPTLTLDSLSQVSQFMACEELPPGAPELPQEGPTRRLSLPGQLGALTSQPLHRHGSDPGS
Sequence of CYP3A4 (P08684 whole entry): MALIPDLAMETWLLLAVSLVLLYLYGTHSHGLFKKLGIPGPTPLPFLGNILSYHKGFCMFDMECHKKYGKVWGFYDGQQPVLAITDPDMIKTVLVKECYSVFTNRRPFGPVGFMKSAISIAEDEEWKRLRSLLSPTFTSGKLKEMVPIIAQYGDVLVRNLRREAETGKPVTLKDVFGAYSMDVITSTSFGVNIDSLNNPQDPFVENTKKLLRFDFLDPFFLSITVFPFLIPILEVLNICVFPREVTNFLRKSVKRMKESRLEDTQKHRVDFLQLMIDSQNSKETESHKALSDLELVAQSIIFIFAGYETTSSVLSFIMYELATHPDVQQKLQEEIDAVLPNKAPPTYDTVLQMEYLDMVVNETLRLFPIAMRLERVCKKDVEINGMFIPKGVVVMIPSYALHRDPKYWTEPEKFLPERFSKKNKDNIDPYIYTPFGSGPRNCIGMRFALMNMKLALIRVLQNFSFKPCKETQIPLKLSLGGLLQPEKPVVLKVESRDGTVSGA

| Compound | inhibition at 1 µM (CDK2/E) [%] | inhibition at 1 µM (DYRK1) [%] | IC50 (CYP3A4) [nM] | IC50 (hERG potassium channel) [nM] | IC50 (HepG2 cells; Homo sapiens, HepG2, 72 h) [nM] | CDK2/E % INH (1 μM) (CDK2/E) [%] | DYRK1A % INH (1 μM) (DYRK1) [%] | IC50 (HepG2 cells; 72 hours) [nM] | IC50 (hERG potassium channel; human, 3 min) [nM] | IC50 (HepG2 cells; Homo sapiens, HepG2, 72 hours) [nM] |
| --- | --- | --- | --- | --- | --- | --- | --- | --- | --- | --- |
| CC(C)n1c(N2CCNCC2)nc2c([N+](=O)[O-])c(Br)c(Br)cc21 [Example 2A, 5,6-dibromo-4-nitro-2-(piperazin-1-yl)-1-(propan-2-yl)-1H-1,3-benzodiazole hydrochloride] | 44 | > 95 | 3300 to 10000 | 3060 | 600 |  |  |  |  |  |
| Cl.O=[N+]([O-])c1c(Br)c(Br)cc2c1nc(N1CCNCC1)n2C1CCCC1 [Example 2D, 5,6-dibromo-1-cyclopentyl-4-nitro-2-(piperazin-1-yl)-1H-1,3-benzodiazole hydrochloride] | 21 | > 95 | 1100 to 3300 | 1600 | 700 |  |  |  |  |  |
| CCCn1c(N2CCNCC2)nc2c([N+](=O)[O-])c(Br)c(Br)cc21 [Example 1M] |  |  | 1100 to 3300 | 520 |  | <5 | >95 | 1800 |  |  |
| CC(C)n1c(N2CCNC[C@H]2C)nc2c([N+](=O)[O-])c(Br)c(Br)cc21 [Example 1AX] |  |  | 1100 to 3300 | 1230 |  |  | >95 | 100 |  |  |
| CCn1c(N2CCNCC2)nc2c([N+](=O)[O-])c(Br)c(Br)cc21 [Example 1A, 5,6-dibromo-1-ethyl-4-nitro-2-(piperazin-1-yl)-1H-1,3-benzodiazole hydrochloride] | < 5 | 66 | 3300 to 10000 |  |  |  |  |  | 1600 | 1300 |
| CC(C)n1c(N2CC[C@@H](N)C2)nc2c(C#N)c(Br)c(Br)cc21 [Example 1BI] | 22 | 79 | 1100 to 3300 |  | 1500 |  |  |  | 5170 |  |
| CC(C)n1c(C2CCNCC2)nc2c([N+](=O)[O-])c(Br)c(Br)cc21 [Example 26A, 5,6-dibromo-4-nitro-2-(piperidin-4-yl)-1-(propan-2-yl)-1H-1,3-benzodiazole] | 36 | > 95 | > 10000 |  | 600 |  |  |  |  |  |

Reference: US10174013B2, “Benzimidazole derivatives as kinase inhibitors” (SELVITA S.A., priority 2012, dated 2019)
